# In patent US20240173432A1, “Compositions and Methods for Treatment of Myotonic Dystrophy Type 1 with CRISPR/SluCas9” (Vertex Pharmaceuticals Incorporated, priority 2021, published 2024):
# Columns and labels:
# [1] = system: 3′ UTR of the human DMPK gene; assay: Single-cut screening: indel editing efficiency by Sanger sequencing and ICE analysis in primary DM1 patient myoblasts; format: cell-based; conditions: vehicle-treated samples; for Indel efficiency: single SluCas9 sgRNA RNP in primary DM1 patient myoblasts, Sanger sequencing and ICE analysis; for indel efficiency (Sanger sequencing and ICE analysis): single-cut, SluCas9 RNP, 72 hrs post nucleofection, wild-type allele
# Method in brief: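 Indels were estimated by ICE from Sanger chromatograms of PCR amplicons covering the DMPK 3′ UTR wild-type allele, using only vehicle-treated samples; sgRNAs with R2<0.9 are flagged. Samples came from primary DM1 patient myoblasts (2 × 10^5) harvested 72 h after nucleofection with 30 pmol SluCas9 and 90 pmol single sgRNA RNP.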
# [2] = system: CUG foci in primary DM1 patient myoblasts; assay: Single-cut screening: FISH staining of CUG RNA foci; format: cell-based, human; conditions: single sgRNA, primary DM1 patient myoblasts; for % of CUG foci free nuclei (DNA-PKi): DNA-PKi treated
# Method in brief: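 CD56-purified primary DM1 patient myoblasts nucleofected with SluCas9:sgRNA RNP (30:90 pmol, single-cut), then DMSO or 3 μM DNA-PK inhibitor for 48 h. At 72 h post-nucleofection, cells fixed and stained for CUG foci with Cy3-PNA(CAG)5 probe (1 ng/μL, 80 °C), co-stained for MBNL1 and Hoechst, imaged by high-content confocal microscopy.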
# [3] = system: CAG foci in primary DM1 patient myoblasts; assay: Single-cut screening: CAG foci staining; format: cell-based, human; conditions: single sgRNA; for % of CAG foci positive nuclei (DNA-PKi): DNA-PKi treated
# Method in brief: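 Primary DM1 patient myoblasts were PFA-fixed and hybridized with […] (1 ng/μL, 15 min at 80° C) in 30% formamide/2×SSC, followed by anti-MBNL1 immunostaining and Hoechst counterstain. CAG RNA foci were quantified by high-content confocal imaging after single-cut SuCas9 sgRNA editing.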
Substance,Indel efficiency [1] [%],% of CUG foci free nuclei (DNA-PKi) [2] [%],% of CUG foci free nuclei (Vehicle) [2] [%],% of CAG foci positive nuclei (DNA-PKi) [3] [%],% of CAG foci positive nuclei (Vehicle) [3] [%],indel efficiency (Sanger sequencing and ICE analysis) [1]
"CTTCGAgccccgttcgccggcc (guide RNA; as printed in the source, key not given here) [SluU61]",14,49.57,17.78,1.46,0.9,
"CTTGTGCATGACGCCCTGCTCT (listed as DNA, chemistry not fully specified) [SluD32]",94,26.23,19.22,1.31,1.43,high editing IN4DEL efficiency
CTTTGCGAACCAACGATAGGTG (guide RNA; chemistry not fully specified) [SluD25],41,32.03,26.87,1.35,2.62,
CTTTTATTCGCGAGGGTCGGGG (guide RNA; chemistry not fully specified) [SluD93],18,26.14,11.34,3.58,1.63,
CTTTTGCCAAACCCGCTTTTTC (guide RNA; chemistry not fully specified) [SluD41],6,37.15,8.97,1.44,1.33,
GACAATAAATACCGAGGAATGT (guide RNA; chemistry not fully specified) [SluD81],10,28.66,9.64,1.75,1.54,
GACGCCCTGCTCTGGGGAGCGT (guide RNA; chemistry not fully specified) [SluD33],74,33.92,12.72,1.76,4.78,
"GAGAGCAGCGCAAGTGAGGAGG (listed as DNA, chemistry not fully specified) [SluD48]",60,25.41,13.31,2.91,2.3,high editing IN4DEL efficiency
GAGGGCCTTTTATTCGCGAGGG (guide RNA; chemistry not fully specified) [SluD97],11,39.95,16.07,2.01,1.19,
GATAGGTGGGGGTGCGTGGAGG (guide RNA; chemistry not fully specified) [SluD21],36,32.15,9.96,1.77,1.95,
GATCACAGACCATTTCTTTCTT (guide RNA; chemistry not fully specified) [SluD01],0,17.29,18.45,1.34,0.79,
GATGGAGGGCCTTTTATTCGCG (guide RNA; chemistry not fully specified) [SluD98],0,11.71,11.21,1.47,0.84,
GCACTTTGCGAACCAACGATAG (guide RNA; chemistry not fully specified) [SluD28],48,31.88,11.31,1.29,1.23,
GCCCAGCTCCAGTCCTGTGATC (guide RNA; chemistry not fully specified) [SluU28],17,36.78,10.14,1.64,1.15,
GCCCCAGCCGGCTCCGCCCGCT (guide RNA; chemistry not fully specified) [SluD55],41,34.69,15.71,2.92,3.01,
"GCCCCCTAGCggccggggaggg (guide RNA; as printed in the source, key not given here) [SluU42]",15,42.7,7.05,1.62,0.86,
GCCCCGGAGTCGAAGACAGTTC (guide RNA; chemistry not fully specified) [SluU05],65,61.16,26.37,1.64,1.53,
GCCCCGGGCACTCAGTCTTCCA (guide RNA; chemistry not fully specified) [SluU13],27,43.12,17.02,1.07,1.11,
"GCCCGCCCCCTAGCggccgggg (guide RNA; as printed in the source, key not given here) [SluU40]",3,25.77,15.29,2.01,1,
GCCCGGATCACAGGACTGGAGC (guide RNA; chemistry not fully specified) [SluU30],48,46.16,26.92,2.14,0.67,
GCCTGTCAGCGAGTCGGAGGAC (guide RNA; chemistry not fully specified) [SluD66],28,30.48,13.03,1.94,1.41,
GCGCGATCTCTGCCTGCTTACT (guide RNA; chemistry not fully specified) [SluD37],25,31.69,6.89,2.15,1.76,
GCGCGGCTTCTGTGCCGTGCCC (guide RNA; chemistry not fully specified) [SluU15],4,31.71,7.97,1.28,0.75,
GCGGTTGTGAACTGGCAGGCGG (guide RNA; chemistry not fully specified) [SluU18],14,48.57,9.74,1.24,1.1,
GCTAGGGGGCGGGCCCGGATCA (guide RNA; chemistry not fully specified) [SluU34],53,63.08,19.95,1.03,0.78,
"GCTCGGAGCGGTTGTGAACTGG (listed as DNA, chemistry not fully specified) [SluU21]",80,54.83,23.65,0.66,0.68,high editing IN4DEL efficiency
GCTTTTGCCAAACCCGCTTTTT (guide RNA; chemistry not fully specified) [SluD40],5,23.44,8.9,1.46,1.68,
"GGCCCGCCCCCTAGCggccggg (guide RNA; as printed in the source, key not given here) [SluU38]",2,32.86,7.24,1.56,0.68,
